Values of other authors as cited in patent US7361646B2, “Methods for treating gastroesophageal reflux disease” (Corcept Therapeutics, Inc., priority 2002, dated 2008).

Columns and labels:
[1] = biological target: T1, glucocorticoid (GR) receptors (Homo sapiens, UniProt P04150); conditions: result in words
T1 sequence (P04150 1-777): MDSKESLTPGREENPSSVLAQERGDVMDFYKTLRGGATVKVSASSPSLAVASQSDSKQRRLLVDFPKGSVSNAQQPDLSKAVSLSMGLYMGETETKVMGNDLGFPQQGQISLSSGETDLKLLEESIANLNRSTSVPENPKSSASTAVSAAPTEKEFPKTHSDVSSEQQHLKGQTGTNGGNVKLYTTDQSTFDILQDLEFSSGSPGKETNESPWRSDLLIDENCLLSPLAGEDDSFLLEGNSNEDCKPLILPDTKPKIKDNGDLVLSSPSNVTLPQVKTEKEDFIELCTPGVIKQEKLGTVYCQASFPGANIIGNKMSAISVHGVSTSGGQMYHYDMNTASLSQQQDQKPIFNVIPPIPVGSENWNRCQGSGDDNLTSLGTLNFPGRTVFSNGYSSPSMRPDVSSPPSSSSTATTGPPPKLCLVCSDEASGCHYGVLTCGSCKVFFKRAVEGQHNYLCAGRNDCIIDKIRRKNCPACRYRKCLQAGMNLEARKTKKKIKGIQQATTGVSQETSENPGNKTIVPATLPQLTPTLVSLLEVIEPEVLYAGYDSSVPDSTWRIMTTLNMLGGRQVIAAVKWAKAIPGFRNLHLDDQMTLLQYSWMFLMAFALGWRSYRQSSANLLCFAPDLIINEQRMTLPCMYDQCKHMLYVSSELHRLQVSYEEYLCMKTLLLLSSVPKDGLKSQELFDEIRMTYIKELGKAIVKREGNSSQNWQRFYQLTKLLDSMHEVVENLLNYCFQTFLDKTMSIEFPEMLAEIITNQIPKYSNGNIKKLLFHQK

[2] = biological target: T2, Mineralocorticoid receptors (MRs) (Homo sapiens, UniProt P08235); conditions: MR versus GR
T2 sequence (P08235 1-984): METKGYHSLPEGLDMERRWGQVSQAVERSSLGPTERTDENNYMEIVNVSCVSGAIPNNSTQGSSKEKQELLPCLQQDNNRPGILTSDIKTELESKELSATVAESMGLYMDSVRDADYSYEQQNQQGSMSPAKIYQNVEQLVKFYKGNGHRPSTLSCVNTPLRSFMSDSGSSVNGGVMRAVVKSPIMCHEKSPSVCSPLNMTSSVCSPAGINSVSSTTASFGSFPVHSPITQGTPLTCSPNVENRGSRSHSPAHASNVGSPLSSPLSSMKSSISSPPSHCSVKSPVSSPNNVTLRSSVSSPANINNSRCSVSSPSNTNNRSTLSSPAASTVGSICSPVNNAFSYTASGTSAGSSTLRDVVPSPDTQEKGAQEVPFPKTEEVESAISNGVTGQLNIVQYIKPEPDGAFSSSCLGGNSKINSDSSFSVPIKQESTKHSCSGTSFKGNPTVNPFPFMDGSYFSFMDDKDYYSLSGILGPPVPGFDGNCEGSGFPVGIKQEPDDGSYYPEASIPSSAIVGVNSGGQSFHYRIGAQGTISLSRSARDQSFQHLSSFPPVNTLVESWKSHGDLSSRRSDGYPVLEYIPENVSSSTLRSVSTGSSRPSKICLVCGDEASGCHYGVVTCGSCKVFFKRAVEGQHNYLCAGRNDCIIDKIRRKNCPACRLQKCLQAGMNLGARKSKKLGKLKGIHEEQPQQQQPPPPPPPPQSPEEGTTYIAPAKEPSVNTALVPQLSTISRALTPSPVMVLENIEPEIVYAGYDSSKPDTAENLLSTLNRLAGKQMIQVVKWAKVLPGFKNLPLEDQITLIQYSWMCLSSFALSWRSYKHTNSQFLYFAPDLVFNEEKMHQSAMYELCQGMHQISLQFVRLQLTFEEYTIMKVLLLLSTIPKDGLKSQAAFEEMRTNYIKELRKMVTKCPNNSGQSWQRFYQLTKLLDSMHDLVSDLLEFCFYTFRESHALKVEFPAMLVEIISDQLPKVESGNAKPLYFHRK

[3] = in one study (Kawai)
progesterone receptor = biological target: T3, progesterone receptor (Homo sapiens, UniProt P06401); conditions: result in words
T3 sequence (P06401 1-933): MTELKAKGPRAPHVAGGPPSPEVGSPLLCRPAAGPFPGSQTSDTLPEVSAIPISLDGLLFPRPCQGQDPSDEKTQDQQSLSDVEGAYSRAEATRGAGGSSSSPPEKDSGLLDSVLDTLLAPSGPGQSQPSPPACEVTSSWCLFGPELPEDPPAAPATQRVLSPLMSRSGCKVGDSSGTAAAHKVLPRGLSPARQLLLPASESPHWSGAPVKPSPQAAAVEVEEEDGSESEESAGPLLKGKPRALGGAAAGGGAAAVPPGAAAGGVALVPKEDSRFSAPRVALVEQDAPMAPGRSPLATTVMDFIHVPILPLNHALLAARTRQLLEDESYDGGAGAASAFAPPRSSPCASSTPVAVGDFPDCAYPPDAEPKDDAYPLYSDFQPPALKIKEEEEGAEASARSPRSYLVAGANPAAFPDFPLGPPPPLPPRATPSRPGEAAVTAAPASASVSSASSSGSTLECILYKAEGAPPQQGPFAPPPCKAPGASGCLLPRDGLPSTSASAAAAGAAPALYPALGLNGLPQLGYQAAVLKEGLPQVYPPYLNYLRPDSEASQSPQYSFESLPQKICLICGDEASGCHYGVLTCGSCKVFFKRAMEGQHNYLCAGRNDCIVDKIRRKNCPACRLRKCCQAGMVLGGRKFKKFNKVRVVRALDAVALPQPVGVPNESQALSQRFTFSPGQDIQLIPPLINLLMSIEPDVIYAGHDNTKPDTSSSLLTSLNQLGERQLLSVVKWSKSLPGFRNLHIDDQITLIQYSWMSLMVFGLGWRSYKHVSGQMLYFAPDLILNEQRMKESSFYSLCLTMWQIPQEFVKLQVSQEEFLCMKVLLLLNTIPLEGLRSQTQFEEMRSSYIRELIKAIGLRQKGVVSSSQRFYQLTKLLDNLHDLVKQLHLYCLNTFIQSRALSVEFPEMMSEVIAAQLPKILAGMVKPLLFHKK

Row | affinity of MRs for cortisol relative to GRs for glucocorticoids [2] | Structure (SMILES) | GR antagonist effect [1] | share of the daily dose excreted in the urine [3] | progesterone receptor antagonist effect (progesterone receptor)
1 |  | CC#C[C@]1(O)CC[C@H]2[C@@H]3CCC4=CC(=O)CCC4=C3[C@@H](c3ccc(OCCN(C)C)cc3)C[C@@]21C [RU009, 11β-(4-dimethylaminoethoxyphenyl)-17α-propynyl-17β-hydroxy-4,9-estradien-3-one] | shown to have GR antagonist effects |  | 
2 | ten-fold higher affinity | C[C@]12CCC(=O)C=C1CC[C@@H]1[C@@H]2[C@@H](O)C[C@@]2(C)[C@H]1CC[C@]2(O)C(=O)CO [cortisol] |  |  | 
3 |  | CC#C[C@]1(O)CC[C@H]2[C@@H]3CCC4=CC(=O)CCC4=C3[C@@H](c3ccc(N(C)C)cc3)C[C@@]21C [Mifepristone, (11β,17β) 11[4(dimethylamino)phenyl]-17hydroxy-17(1 propynyl)estra-4,9dien-3one] | powerful antagonist | less than 0.5 % of the daily dose | powerful antagonist
